Source: US20210292755A1, “NOVEL DOUBLE-STRANDED OLIGONUCLEOTIDES FOR THE TREATMENT OF CANCER” (SELEXEL, priority 2016, published 2021)

What was measured:
[1] = tested on: 22RV1 human prostatic tumor; assay: Subcutaneous tumor volume in mice; assay type: in vivo; details: twice a week
Description: Tumors are obtained by subcutaneous injection of tumor cells into the flank of Nude mice. Only animals on which tumor uptake is found are included in the study and randomized to receive treatment or control treatment.
When indicated, the continuous administration of siRNA is carried out by implantation of an Alzet osmotic pump subcutaneously on the back of the mice, on the opposite side to the tumor when the mice wear one. The concentration of siRNA in the pump is adjusted to deliver the indicated amount in mg/kg/day taking into account the pump flow rate indicated by the manufacturer.
The subcutaneous tumors volume is estimated by measuring with a calliper the largest (D), the smallest (d) diameter of the tumors and their height (h). The volume is calculated by the formula V=D×d×h×Pi/6.

γH2AX = assay: Indirect immunofluorescence of γH2AX, bleomycin-treated transfected cells; assay type: cell-based, human
Description: (§1) FIG. 8: Immuno detection of γH2AX (first column) and 53BP1 (second column) in C4-2 cells treated for 6 h with bleomycin ([…]) or the vehicle added 72 h after transfection of cells by a control siRNA (Cont), siAR7 siRNA, or siARH2AX-1.
(§2) All the cells used in the following examples are human cells and express H2AX.
(§3) The cells are cultured in DMEM or RPMI supplemented with 10% fetal calf serum, or as recommended by the ATCC. When indicated, they are transfected with siRNA using lipofectamine (Life Technologies), following the supplier's protocol. The number of living cells after the indicated treatments was quantified by measuring their metabolic activity by the WST1 test according to the supplier's indications (Roche).
(§4) The effect of siRNA transfection and/or treatments by different chemotherapeutic agents on gene expression was measured: • by RT-qPCR quantification of mRNAs extracted by a conventional phenol-chloroform method (Trizol). The amount of RNA was normalized by measuring the cyclophilin A-encoding mRNA which is not regulated by AR (delta delta CT method). • by Western blotting on protein extracts. The antibodies used are: AR: Santacruz, N-20 sc-816; H2AX: Merck Millipore ref 07-627; Tubulin: Sigma T6199; Actin: Merck Millipore MAB 1501; γH2AX: Merck Millipore 05-636. […] The antibodies used are the following: γH2AX: Merck Millipore 05-636; 53BP1: Novus, NB 100-304.
(§5) In the experiment shown in FIG. 8, C4-2 cells were transfected with a control or siARH2AX-1 siRNA. 72 hours after transfection, the cells were then treated for 6 hours with […] of bleomycin or the corresponding vehicle.

53BP1 = assay: Indirect immunofluorescence of 53BP1, bleomycin-treated transfected cells; assay type: cell-based, human; details: C4-2 cells transfected with Cont siRNA, 6 hours with 10 μl of bleomycin
Description: as §1, §2, §3, §4, §5

H2AX-encoding mRNA = assay: RT-qPCR of H2AX-encoding mRNA after siRNA transfection; assay type: cell-based, human; details: for H2AX mRNA expression: both lines
Description: as §2, §3, §4

AR-encoding mRNA = assay: RT-qPCR of AR-encoding mRNA after siRNA transfection; assay type: cell-based, human; details: for AR mRNA expression: both lines
Description: as §2, §3, §4

C4-2 cells = assay: WST1 cell viability test; assay type: cell-based, human
Description: as §2, §3

MDA MB231 cells = assay: WST1 cell viability test; assay type: cell-based, human; details: for cell viability, siRNA combined with etoposide: 40 μl of etoposide added 24 hours after transfection, WST1 48 h later
Description: as §2, §3

LNCaP cells = assay: WST1 cell viability test; assay type: cell-based, human; details: 72 hr after transfection
Description: as §2, §3

PSA-encoding mRNA = assay: RT-qPCR of PSA-encoding mRNA after siRNA transfection; assay type: cell-based, human; details: LNCaP or C4-2 cells, both lines, 72 hours after transfection
Description: as §2, §3, §4
In the experiment shown in FIG. 4, the LNCaP or C4-2 tumor cells were transfected with the following siRNAs: Cont, siAR7 or siARH2AX-1.

WM266-4 cells = assay: WST1 cell viability test; assay type: cell-based, human; details: for cell viability, siRNA combined with etoposide: 40 μl of etoposide added 24 hours after transfection, WST1 48 h later
Description: as §2, §3

22RV1 cells = assay: WST1 cell viability test; assay type: cell-based, human; details: 72 hr after transfection
Description: as §2, §3

AR = assay: Western blot of AR after siRNA transfection; assay type: cell-based, human; details: C4-2 cells, 72 h after transfection
Description: as §2, §3, §4

MDA MB-453 cells = assay: WST1 cell viability test; assay type: cell-based, human; details: 72 hr after transfection
Description: as §2, §3

U87 cells = assay: WST1 cell viability test; assay type: cell-based, human; details: 72 hr after transfection
Description: as §2, §3

H2AX = assay: Western blot of H2AX after siRNA transfection; assay type: cell-based, human; details: C4-2 cells, 72 h after transfection
Description: as §2, §3, §4

[2] = C4-2 cells, 48 hours after transfection, relative to control siRNA
[3] = LNCaP or C4-2 cells, 72 hours after transfection
[4] = LNCaP or MDA MB-453 cells, 72 h after transfection

COc1cc([C@@H]2c3cc4c(cc3[C@@H](O[C@@H]3O[C@@H]5CO[C@@H](C)O[C@H]5[C@H](O)[C@H]3O)[C@H]3COC(=O)[C@H]23)OCO4)cc(OC)c1O [etoposide]
tumor development ([1]; etoposide 5 mg/kg intraperitoneal): only slightly inhibits tumor development
tumor development ([1]; etoposide 15 mg/kg intraperitoneal): produces an inhibition

bleomycin
expression of γH2AX (γH2AX; C4-2 cells transfected with Cont siRNA, 6 hours with 10 μl of bleomycin): strongly increases
53BP1 labeling (53BP1): becomes punctiforme

siAR2: siRNA inhibiting AR described in PCT/FR2002/003843, SEQ ID NO 9 and SEQ ID NO 10 (chain 1 GACUCAGCUGCCCCAUCCACGNN; chain 2 CGUGGAUGGGGCAGCUGAGUCNN; chemistry not fully specified)
H2AX expression (mRNA) (H2AX-encoding mRNA; [2]): considerably less effective at inhibiting the expression of H2AX
AR expression (mRNA) (AR-encoding mRNA; [2]): inhibit AR expression in a similar manner
cell viability (C4-2 cells; 90 hours after transfection): only marginally
cell viability, siRNA combined with bleomycin (C4-2 cells; bleomycin (10 μM) added 48 hours after transfection, read 48 hours later, versus chemotherapeutic agent alone): does not produce a significantly greater viability-inhibiting effect
cell viability, siRNA combined with etoposide (C4-2 cells; etoposide (10 μM) added 48 hours after transfection, read 48 hours later, versus chemotherapeutic agent alone): does not produce a significantly greater viability-inhibiting effect
cell viability (MDA MB231 cells; 90 hours after transfection): only marginally

siAR7: siRNA hybridizing with a sequence of the 7th exon of AR, not H2AX; SEQ ID NO 13 and 14 (chain 1 AAUGAUACGAUCGAGUUCCNN; chain 2 GGAACUCGAUCGUAUCAUUNN; chemistry not fully specified)
H2AX mRNA expression (H2AX-encoding mRNA; [3]): only siARH2AX-1 also inhibits the expression of H2AX
AR mRNA expression (AR-encoding mRNA; [3]): inhibit the expression of AR and PSA
cell viability / proliferation (LNCaP cells): inhibit the proliferation
cell viability / proliferation (C4-2 cells; 72 hr after transfection): inhibit the proliferation
PSA mRNA expression (PSA-encoding mRNA): inhibit the expression of AR and PSA
γH2AX labeling after bleomycin (γH2AX; siRNA-transfected C4-2 cells, 72 hours after transfection, bleomycin 6 hours): increase in γH2AX labeling

siARh: siRNA hybridizing with a sequence of the first exon of AR, not H2AX; SEQ ID NO 11 and 12 (chain 1 UCCCCAAGCCCAUCGUAGANN; chain 2 UCUACGAUGGGCUUGGGGANN; chemistry not fully specified)
AR mRNA expression (AR-encoding mRNA; [4]): inhibits AR
cell viability, siRNA combined with etoposide (WM266-4 cells): no amplification of the effects of etoposide
cell viability / proliferation (22RV1 cells): inhibit the proliferation
cell viability, siRNA combined with etoposide (MDA MB231 cells): no amplification of the effects of etoposide
AR protein expression (AR): inhibits AR

siH2AX: siRNA hybridizing with H2AX mRNA but not with that of AR; SEQ ID NO 15 and 16 (chain 1 CUGGAAUUCUGCAGCUAACNN; chain 2 GUUAGCUGCAGAAUUCCAGNN; chemistry not fully specified)
H2AX mRNA expression (H2AX-encoding mRNA; [4]): inhibits H2AX
cell viability, siRNA combined with etoposide (WM266-4 cells): no amplification of the effects of etoposide
cell viability / proliferation (WM266-4 cells; 72 hr after transfection): has little effect on cell proliferation
cell viability / proliferation (22RV1 cells): has little effect on cell proliferation
cell viability, siRNA combined with etoposide (MDA MB231 cells): no amplification of the effects of etoposide
cell viability / proliferation (MDA MB231 cells; 72 hr after transfection): has little effect on cell proliferation
cell viability / proliferation (MDA MB-453 cells): has little effect on cell proliferation
cell viability / proliferation (U87 cells): has little effect on cell proliferation
H2AX protein expression (H2AX): inhibits H2AX
